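A five-concentration, 48-hour dose response in 96-well plates underlies each endpoint, interpolated linearly between surrounding concentrations. GI50 = concentration required for 50% inhibition of growth. TGI: total growth inhibition.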
What was measured:
Experiment in all cases: DTP human tumour cell line panel, 48 h
[1] = tested on: SK-MEL-2 melanoma
[2] = tested on: SF-539 CNS
[3] = tested on: HCT-116 colon
[4] = tested on: SF-268 CNS
[5] = tested on: EKVX NSCLC
[6] = tested on: TK-10 renal
[7] = tested on: HT29 colon
[8] = tested on: OVCAR-3 ovarian
[9] = tested on: NCI-H23 lung
[10] = tested on: A498 renal

Row | SMILES | GI50 [1] | TGI [1] | GI50 [2] | TGI [2] | GI50 [3] | TGI [3] | GI50 [4] | TGI [4] | GI50 [5] | TGI [5] | GI50 [6] | TGI [6] | GI50 [7] | TGI [7] | GI50 [8] | TGI [8] | GI50 [9] | TGI [9] | GI50 [10] | TGI [10]
1 | Cc1ccc(NC(=O)c2cc(S(=O)(=O)N3C(=O)NC(=O)NS3(=O)=O)c(S)cc2Cl)cc1 | 28.3 µM | 85.3 µM | 27.6 µM | 68 µM | 30.3 µM | > 100 µM | 38.1 µM | > 100 µM | 29.5 µM | 96.7 µM | 27.8 µM | 71.3 µM | 42.8 µM | > 100 µM | 16.5 µM | 36.4 µM | 32.3 µM | 99.6 µM | 26.2 µM | 68.5 µM
2 | O=C(/C=C/c1ccccc1)CC(=O)CCC(=O)Nc1ccc(Cl)cc1 | – | > 100 µM | – | > 100 µM | – | > 100 µM | – | > 100 µM | – | > 100 µM | – | > 100 µM | – | > 100 µM | – | > 100 µM | – | > 100 µM | – | > 100 µM
3 | COc1cc(NCCCCCCCNC(C)C)c2nccc(C)c2c1 | 20 µM | 38.3 µM | 13.7 µM | 26.8 µM | 6.95 µM | 19.9 µM | 16.3 µM | 31.9 µM | 10.9 µM | 26.5 µM | 17.1 µM | 32.7 µM | 4.29 µM | 16.4 µM | 2.96 µM | 8.89 µM | 12.1 µM | 26.2 µM | 15.3 µM | 29.6 µM
4 | Cc1c(C(=O)O)oc2ccc([N+](=O)[O-])cc12 | – | > 100 µM | – | > 100 µM | – | > 100 µM | – | > 100 µM | – | > 100 µM | – | > 100 µM | – | > 100 µM | – | > 100 µM | – | > 100 µM | – | > 100 µM
5 | O=c1c(F)cn(Cc2ccccc2CCl)c(=O)n1Cc1ccccc1CCl | 1.54 µM | 3.05 µM | 2.06 µM | 4.73 µM | 1.11 µM | 2.84 µM | 2.04 µM | 4.81 µM | 3.07 µM | 9.22 µM | 2.15 µM | 5.44 µM | 2.01 µM | 4.71 µM | 1.54 µM | 3.07 µM | 2.42 µM | 7.05 µM | 1.58 µM | 5.97 µM
6 | O=C(O)c1ccccc1/C=N/N=C1c2ccccc2-c2ccccc21 | – | > 100 µM | – | > 100 µM | – | > 100 µM | – | 77.1 µM | – | > 100 µM | – | > 100 µM | – | > 100 µM | – | 36 µM | – | > 100 µM | – | > 100 µM
7 | c1c[nH]c(CN2CCOCC2)n1 | – | > 100 µM | – | > 100 µM | – | > 100 µM | – | > 100 µM | – | > 100 µM | – | > 100 µM | – | > 100 µM | – | > 100 µM | – | > 100 µM | – | > 100 µM
8 | Nc1ccc(/C=C/C(=O)NCc2cc3cc(-c4ccc(C(=O)N5CCC(F)(F)CC5)cc4)cc(-c4ccc(F)cc4)c3o2)cn1 | > 100 µM | > 100 µM | 0.118 µM | > 100 µM | 0.0491 µM | > 100 µM | > 100 µM | > 100 µM | > 100 µM | > 100 µM | > 100 µM | > 100 µM | 1.89 µM | > 100 µM | > 39.1 µM | > 100 µM | > 100 µM | > 100 µM | > 100 µM | > 100 µM
9 | COc1ccc(OC)c(Cn2cc3c(c2-c2ccccc2)CCc2cnoc2-3)c1 | 3.71 µM | 59.2 µM | 4.24 µM | 56.9 µM | 4.04 µM | > 100 µM | 6.24 µM | > 100 µM | 6.9 µM | > 100 µM | 8.01 µM | > 100 µM | 3.15 µM | > 100 µM | 2.7 µM | 7.95 µM | 7.99 µM | > 100 µM | 2.12 µM | 9.28 µM
10 | Cc1nc(C(N)=S)sc1C(=O)/C=C/c1c(O)ccc2ccccc12 | – | > 100 µM | – | > 100 µM | – | > 100 µM | – | > 100 µM | – | > 100 µM | – | > 100 µM | – | > 100 µM | – | > 84.3 µM | – | > 100 µM | – | > 100 µM
11 | Oc1ccccc1-c1nn(CNc2ccccc2Cl)c(=S)o1 | > 100 µM | > 100 µM | 37.7 µM | 97.7 µM | 29.8 µM | > 100 µM | > 100 µM | > 100 µM | > 100 µM | > 100 µM | 42.2 µM | > 100 µM | 21 µM | 63.8 µM | 89.7 µM | > 100 µM | > 100 µM | > 100 µM | > 100 µM | > 100 µM
12 | O=C(O)[C@H](c1ccccc1)[C@@H](C(=O)O)c1ccccc1 | – | > 100 µM | – | > 100 µM | – | > 100 µM | – | > 100 µM | – | > 100 µM | – | > 100 µM | – | > 100 µM | – | > 100 µM | – | > 100 µM | – | > 100 µM
13 | CC(=O)O[C@H]1CCc2c(cc(N)c3c2C(=O)C[C@]2(C)C([C@H](C)CCCC(C)C)CCC32C)C1(C)C (stereo not given in full) | – | > 100 µM | – | > 100 µM | – | > 100 µM | – | > 100 µM | – | > 100 µM | – | > 100 µM | – | > 100 µM | – | > 100 µM | – | > 100 µM | – | > 100 µM
14 | CC(C)(C)OC(=O)NCCCCCCCn1c2c(c3ccccc3c1=O)C(=O)c1ccccc1-2 | 36.6 µM | > 100 µM | 20.7 µM | 38.8 µM | 17.6 µM | 66.6 µM | 25.4 µM | 93.6 µM | > 100 µM | > 100 µM | 38.3 µM | > 100 µM | 37.6 µM | > 100 µM | 34.3 µM | > 100 µM | 26 µM | > 100 µM | 4.74 µM | 42.2 µM
15 | C=C1C(=O)O[C@H]2[C@H]1CC/C(C=Nc1c(N)cc(C(F)(F)F)cc1Br)=C\CC[C@@]1(C)O[C@@H]21 | 1.63 µM | 3.47 µM | 1.51 µM | 2.87 µM | 1.11 µM | 2.41 µM | 1.4 µM | 3.34 µM | 1.84 µM | 5.1 µM | 1.98 µM | 3.49 µM | 1.63 µM | 3.13 µM | 1.29 µM | 2.65 µM | 1.84 µM | 4.41 µM | 2.03 µM | 4.8 µM
16 | C/C(=N/NC(=O)C[N+](C)(C)C)C(CN(C)C)C(=O)Nc1ccccc1 (stereo not given) | – | > 100 µM | – | > 100 µM | – | > 100 µM | – | > 100 µM | – | > 100 µM | – | > 100 µM | – | > 100 µM | – | > 100 µM | – | > 100 µM | – | > 100 µM
17 | N#CNC(N)=Nc1ccc(Cl)cc1 | – | > 100 µM | – | > 100 µM | – | > 100 µM | – | > 100 µM | – | > 100 µM | – | > 100 µM | – | > 100 µM | – | > 100 µM | – | > 100 µM | – | > 100 µM
18 | Cc1cc(N(CCC#N)CCC#N)ccc1/C=C(\NC(=O)/C=C/c1ccccc1)C(=O)NN | – | > 100 µM | – | > 100 µM | – | > 100 µM | – | > 100 µM | – | > 100 µM | – | > 76.8 µM | – | > 100 µM | – | > 100 µM | – | > 100 µM | – | > 100 µM
19 | O=C1OCC2=C1C(c1ccccc1)c1cc3c(cc1N2CCO)OCO3 (stereo not given) | 2.72 µM | > 50 µM | 2.41 µM | > 50 µM | 1.79 µM | > 50 µM | 3.82 µM | > 50 µM | 14 µM | > 50 µM | 32.7 µM | > 50 µM | 1.72 µM | > 50 µM | 1.15 µM | 2.6 µM | 7.88 µM | > 50 µM | 3.38 µM | > 50 µM
20 | CC(C)(Oc1ccc(/C=C/C(=O)c2ccc(Cl)cc2)cc1)C(=O)Nc1c(Cl)cccc1Cl | – | > 100 µM | – | 28.1 µM | – | 18.5 µM | – | 90.2 µM | – | > 100 µM | – | > 100 µM | – | 28 µM | – | 44.8 µM | – | 40.9 µM | – | 32.4 µM
21 | Nc1ncnc2c1ncn2CC(O)CO (stereo not given) | – | > 100 µM | – | > 100 µM | – | > 100 µM | – | > 100 µM | – | > 100 µM | – | > 100 µM | – | > 100 µM | – | > 100 µM | – | > 100 µM | – | > 100 µM

Source: PubChem BioAssay (NCI)
